The supplement of paper PMC10307832

Legend:
Assay in all cases: relative viability (nuclei count vs DMSO), 5 days (fraction); higher = more cells survive
CUDC-101 + Bortezomib = compound: C#Cc1cccc(Nc2ncnc3cc(OC)c(OCCCCCCC(=O)NO)cc23)c1 [CUDC-101] + CC(C)C[C@H](NC(=O)[C@H](Cc1ccccc1)NC(=O)c1cnccn1)B(O)O [Bortezomib] (partner 0.002 µM)
Method in brief: (§1)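 Lung cancer cell lines were pin-tool dosed in 1536-well plates on the day after seeding, with either a lone drug or a fixed anchor-drug dose plus five library-drug doses (not always all listed) in √10 steps. Nuclei were counted on 4× images after 5 days. Relative viability is the ratio of treated-well to vehicle-well nuclei counts, with each value a median of duplicate plates.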

CUDC-101 + Lapatinib = compound: C#Cc1cccc(Nc2ncnc3cc(OC)c(OCCCCCCC(=O)NO)cc23)c1 [CUDC-101] + CS(=O)(=O)CCNCc1ccc(-c2ccc3ncnc(Nc4ccc(OCc5cccc(F)c5)c(Cl)c4)c3c2)o1 [Lapatinib] (partner 2 µM)
Method in brief: as §1

[1] = compound: C1=CC=C2C(=C1)N=C(S2)C(C#N)C3=NC(=NC=C3)NCCC4=CN=CC=C4 + Nc1ncn([C@H]2C[C@H](O)[C@@H](CO)O2)c(=O)n1 [Decitabine] (partner 2 µM)
Method in brief: as §1

Vandetanib + Decitabine = compound: COc1cc2/c(=N/c3ccc(Br)cc3F)nc[nH]c2cc1OCC1CCN(C)CC1 [Vandetanib] + Nc1ncn([C@H]2C[C@H](O)[C@@H](CO)O2)c(=O)n1 [Decitabine] (partner 2 µM)
Method in brief: as §1

Work on UMC-11 yielded a relative viability (CUDC-101 + Bortezomib; first compound 0.01 µM) of 0.918, a relative viability (CUDC-101 + Bortezomib; first compound 0.03162 µM) of 0.831 and a relative viability (CUDC-101 + Bortezomib; first compound 0.1 µM) of 0.468. For the same cell line, the relative viability (CUDC-101 + Bortezomib; first compound 0.3162 µM) was 0.576, the relative viability (CUDC-101 + Bortezomib; first compound 1 µM) was 0.167 and the relative viability (CUDC-101 + Lapatinib; first compound 0.01 µM) was 1.05. The relative viability (CUDC-101 + Lapatinib; first compound 0.03162 µM) was 0.968, the relative viability (CUDC-101 + Lapatinib; first compound 0.1 µM) was 0.724 and the relative viability (CUDC-101 + Lapatinib; first compound 0.3162 µM) was 0.711. It also gave a relative viability (CUDC-101 + Lapatinib; first compound 1 µM) of 0.126, a relative viability ([1]; first compound 0.005 µM) of 0.546 and a relative viability ([1]; first compound 0.01581 µM) of 0.65. For the same cell line, the relative viability ([1]; first compound 0.05 µM) was 0.456, the relative viability ([1]; first compound 0.1581 µM) was 0.589 and the relative viability ([1]; first compound 0.5 µM) was 0.59. For the same cell line, the relative viability (Vandetanib + Decitabine; first compound 0.02 µM) was 0.595, the relative viability (Vandetanib + Decitabine; first compound 0.06325 µM) was 0.553 and the relative viability (Vandetanib + Decitabine; first compound 0.2 µM) was 0.665. It also gave a relative viability (Vandetanib + Decitabine; first compound 0.6325 µM) of 0.528 and a relative viability (Vandetanib + Decitabine; first compound 2 µM) of 0.614.
